Assay results from patent publication US11066711B2, “Biomarkers for predicting Clostridium difficile infection treatment outcome” (Mayo Foundation for Medical Education and Research, priority 2015, dated 2021).

System: Clostridium difficile infection
Assay: Primary CDI treatment outcome in patients with a first CDI episode (clinical cohort)
Assay type: in vivo, human
Details: 88 patients with first CDI episode; metronidazole versus vancomycin (Table 1)
Source text: Patients with a first Clostridium difficile infection (CDI) episode were recruited. Consecutive patient stool samples that led to CDI diagnosis were collected.
Clinical data including demographics, hospitalization, concomitant medications, severity, laboratory parameters, prior and concomitant antibiotic use, initial CDI treatment, treatment response and recurrent CDI were obtained by a review of the electronic medical record.
Treatment failure was defined as non-response to treatment after 5 days of metronidazole treatment or 4 days of vancomycin therapy (Khanna et al., 2012 Am J Gastroenterol 107:89-95; Cohen et al., 2010 Infect Control Hosp Epidemiol 31:431-55; and Surawicz et al., 2013 Am J Gastroenterol 108:478-98). Recurrent CDI was defined as recurrence of diarrhea after complete resolution of symptoms at any time during the treatment or within 56 days of onset with a positive CDI test (Cohen et al., 2010 Infect Control Hosp Epidemiol 31:431-55).
Stool samples were collected from 88 patients (median age 52.7 years, interquartile range 36.9-65.1; 60.2% female) and clinical outcomes were recorded prospectively. The rate of primary non-response following recommended treatment was 12.5%, and was similar between metronidazole and vancomycin (Table 1).

Row | SMILES | rate of primary non-response, comparison between drugs
1 | Cc1ncc([N+](=O)[O-])n1CCO [metronidazole] | similar
2 | CN[C@H](CC(C)C)C(=O)N[C@H]1C(=O)N[C@@H](CC(N)=O)C(=O)N[C@H]2C(=O)N[C@H]3C(=O)N[C@H](C(=O)N[C@H](C(=O)O)c4cc(O)cc(O)c4-c4cc3ccc4O)[C@H](O)c3ccc(c(Cl)c3)Oc3cc2cc(c3O[C@@H]2O[C@H](CO)[C@@H](O)[C@H](O)[C@H]2O[C@H]2C[C@](C)(N)[C@H](O)[C@H](C)O2)Oc2ccc(cc2Cl)[C@H]1O [vancomycin] | similar
